{"source": "the kinase profiling compilation of Christmann-Franck et al. (2016)", "test_in_all_cases": "radiometric filter-binding kinase assay", "key": {"[1]": {"target": "AURKA (human) (UniProt O14965)"}, "[2]": {"target": "BRSK2 (human) (UniProt Q8IWQ3)", "sequence (Q8IWQ3 whole entry, looked up)": "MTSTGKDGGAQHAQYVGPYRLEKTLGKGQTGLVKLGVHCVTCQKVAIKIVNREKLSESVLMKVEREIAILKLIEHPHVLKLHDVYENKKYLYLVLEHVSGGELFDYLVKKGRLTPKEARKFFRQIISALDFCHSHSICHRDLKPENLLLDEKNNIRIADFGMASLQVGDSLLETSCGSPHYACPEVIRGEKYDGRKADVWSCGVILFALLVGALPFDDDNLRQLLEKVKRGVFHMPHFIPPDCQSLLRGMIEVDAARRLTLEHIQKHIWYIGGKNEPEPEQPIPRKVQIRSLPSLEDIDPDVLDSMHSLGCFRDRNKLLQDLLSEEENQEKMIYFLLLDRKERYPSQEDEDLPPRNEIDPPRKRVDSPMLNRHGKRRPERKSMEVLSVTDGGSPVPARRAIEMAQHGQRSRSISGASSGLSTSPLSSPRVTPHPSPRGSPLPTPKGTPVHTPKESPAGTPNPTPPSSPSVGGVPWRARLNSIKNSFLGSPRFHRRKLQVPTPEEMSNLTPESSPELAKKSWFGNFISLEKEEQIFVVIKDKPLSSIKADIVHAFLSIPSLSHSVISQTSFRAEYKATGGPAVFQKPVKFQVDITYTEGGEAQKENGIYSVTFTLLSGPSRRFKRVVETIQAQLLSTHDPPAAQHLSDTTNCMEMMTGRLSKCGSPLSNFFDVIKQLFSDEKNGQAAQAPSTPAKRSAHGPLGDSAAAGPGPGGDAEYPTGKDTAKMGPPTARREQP"}, "[3]": {"target": "CDK2 CCNA2 (human) (UniProt P20248+P24941)"}, "[4]": {"target": "DAPK1 (human) (UniProt P53355)"}, "[5]": {"target": "DYRK2 (human) (UniProt Q92630)", "sequence (Q92630 whole entry, looked up)": "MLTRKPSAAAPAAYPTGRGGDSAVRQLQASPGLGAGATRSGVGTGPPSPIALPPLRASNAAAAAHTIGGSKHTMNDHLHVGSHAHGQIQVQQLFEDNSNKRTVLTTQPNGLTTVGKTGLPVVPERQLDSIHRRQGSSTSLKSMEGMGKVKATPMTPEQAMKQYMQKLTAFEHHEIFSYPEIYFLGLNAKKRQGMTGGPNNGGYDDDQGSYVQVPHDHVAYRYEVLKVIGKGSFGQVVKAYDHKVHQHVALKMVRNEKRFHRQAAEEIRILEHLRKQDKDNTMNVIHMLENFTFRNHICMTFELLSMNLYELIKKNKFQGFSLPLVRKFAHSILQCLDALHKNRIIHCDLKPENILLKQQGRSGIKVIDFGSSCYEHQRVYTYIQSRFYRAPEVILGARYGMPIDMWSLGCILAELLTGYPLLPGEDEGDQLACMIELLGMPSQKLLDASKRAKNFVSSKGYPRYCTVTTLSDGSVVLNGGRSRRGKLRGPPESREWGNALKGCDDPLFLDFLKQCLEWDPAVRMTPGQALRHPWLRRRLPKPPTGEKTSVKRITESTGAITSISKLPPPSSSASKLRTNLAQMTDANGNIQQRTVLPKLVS"}, "[6]": {"target": "DYRK3 (human) (UniProt O43781)", "sequence (O43781 whole entry, looked up)": "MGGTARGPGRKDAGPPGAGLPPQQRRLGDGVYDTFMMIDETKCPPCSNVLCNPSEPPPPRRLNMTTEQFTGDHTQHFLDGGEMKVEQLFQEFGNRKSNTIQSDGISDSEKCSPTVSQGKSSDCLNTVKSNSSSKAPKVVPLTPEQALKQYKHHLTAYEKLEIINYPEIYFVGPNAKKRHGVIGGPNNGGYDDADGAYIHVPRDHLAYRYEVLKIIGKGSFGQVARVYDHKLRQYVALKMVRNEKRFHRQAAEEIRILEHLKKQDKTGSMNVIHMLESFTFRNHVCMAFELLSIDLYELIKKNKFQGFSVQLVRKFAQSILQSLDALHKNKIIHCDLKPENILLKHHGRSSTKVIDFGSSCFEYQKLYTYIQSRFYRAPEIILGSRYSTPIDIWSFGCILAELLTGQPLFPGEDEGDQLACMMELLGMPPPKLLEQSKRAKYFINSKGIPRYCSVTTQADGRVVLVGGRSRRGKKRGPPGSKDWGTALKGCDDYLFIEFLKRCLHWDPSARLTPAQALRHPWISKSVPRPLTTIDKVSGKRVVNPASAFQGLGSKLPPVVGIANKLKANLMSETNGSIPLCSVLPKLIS"}, "[7]": {"target": "EIF2AK3 (human) (UniProt Q9NZJ5)"}, "[8]": {"target": "EPHB3 (human) (UniProt P54753)"}, "[9]": {"target": "FGFR1 (human) (UniProt P11362)"}, "[10]": {"target": "GCK (human) (UniProt Q12851)", "sequence (Q12851 whole entry, looked up)": "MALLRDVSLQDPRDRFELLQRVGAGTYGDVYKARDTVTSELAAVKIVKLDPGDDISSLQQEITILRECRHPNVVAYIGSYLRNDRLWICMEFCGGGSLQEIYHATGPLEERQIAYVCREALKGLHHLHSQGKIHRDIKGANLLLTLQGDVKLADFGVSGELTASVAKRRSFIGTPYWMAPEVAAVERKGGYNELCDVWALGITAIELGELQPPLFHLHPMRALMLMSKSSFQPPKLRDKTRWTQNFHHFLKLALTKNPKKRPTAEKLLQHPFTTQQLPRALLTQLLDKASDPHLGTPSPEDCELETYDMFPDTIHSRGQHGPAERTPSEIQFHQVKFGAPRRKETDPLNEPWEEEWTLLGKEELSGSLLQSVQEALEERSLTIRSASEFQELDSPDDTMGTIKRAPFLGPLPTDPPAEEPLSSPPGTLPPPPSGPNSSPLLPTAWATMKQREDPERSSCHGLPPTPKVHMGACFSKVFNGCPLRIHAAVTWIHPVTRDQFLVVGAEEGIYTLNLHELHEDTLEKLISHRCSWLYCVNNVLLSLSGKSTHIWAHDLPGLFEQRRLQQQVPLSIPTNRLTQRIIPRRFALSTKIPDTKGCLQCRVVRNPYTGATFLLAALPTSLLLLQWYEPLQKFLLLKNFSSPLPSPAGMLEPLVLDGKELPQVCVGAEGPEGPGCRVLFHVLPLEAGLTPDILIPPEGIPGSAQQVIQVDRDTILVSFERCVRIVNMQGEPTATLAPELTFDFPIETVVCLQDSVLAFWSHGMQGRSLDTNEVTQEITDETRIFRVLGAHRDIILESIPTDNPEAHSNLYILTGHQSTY"}, "[11]": {"target": "HIPK1 (human) (UniProt Q86Z02)"}, "[12]": {"target": "HIPK3 (human) (UniProt Q9H422)"}, "[13]": {"target": "IKBKE (human) (UniProt Q14164)"}, "[14]": {"target": "MAP2K1 (human) (UniProt Q02750)", "sequence (Q02750 whole entry, looked up)": "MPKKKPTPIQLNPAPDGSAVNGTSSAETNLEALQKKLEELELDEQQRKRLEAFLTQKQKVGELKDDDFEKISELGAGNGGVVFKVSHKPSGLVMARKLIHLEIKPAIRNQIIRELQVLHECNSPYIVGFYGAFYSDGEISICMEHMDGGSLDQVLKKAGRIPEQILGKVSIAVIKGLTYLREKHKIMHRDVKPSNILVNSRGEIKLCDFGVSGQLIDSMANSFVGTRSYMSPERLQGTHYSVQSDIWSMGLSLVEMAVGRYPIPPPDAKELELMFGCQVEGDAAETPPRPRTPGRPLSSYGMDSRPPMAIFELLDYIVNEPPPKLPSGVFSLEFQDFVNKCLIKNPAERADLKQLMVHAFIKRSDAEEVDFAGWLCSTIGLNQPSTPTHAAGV"}, "[15]": {"target": "MAPK15 (human) (UniProt Q8TD08)"}, "[16]": {"target": "MAPK8 (human) (UniProt P45983)"}, "[17]": {"target": "MAPKAPK2 (human) (UniProt P49137)"}, "[18]": {"target": "MELK (human) (UniProt Q14680)"}, "[19]": {"target": "NEK6 (human) (UniProt Q9HC98)"}, "[20]": {"target": "PAK6 (human) (UniProt Q9NQU5)"}, "[21]": {"target": "PDPK1 (human) (UniProt O15530)", "sequence (O15530 whole entry, looked up)": "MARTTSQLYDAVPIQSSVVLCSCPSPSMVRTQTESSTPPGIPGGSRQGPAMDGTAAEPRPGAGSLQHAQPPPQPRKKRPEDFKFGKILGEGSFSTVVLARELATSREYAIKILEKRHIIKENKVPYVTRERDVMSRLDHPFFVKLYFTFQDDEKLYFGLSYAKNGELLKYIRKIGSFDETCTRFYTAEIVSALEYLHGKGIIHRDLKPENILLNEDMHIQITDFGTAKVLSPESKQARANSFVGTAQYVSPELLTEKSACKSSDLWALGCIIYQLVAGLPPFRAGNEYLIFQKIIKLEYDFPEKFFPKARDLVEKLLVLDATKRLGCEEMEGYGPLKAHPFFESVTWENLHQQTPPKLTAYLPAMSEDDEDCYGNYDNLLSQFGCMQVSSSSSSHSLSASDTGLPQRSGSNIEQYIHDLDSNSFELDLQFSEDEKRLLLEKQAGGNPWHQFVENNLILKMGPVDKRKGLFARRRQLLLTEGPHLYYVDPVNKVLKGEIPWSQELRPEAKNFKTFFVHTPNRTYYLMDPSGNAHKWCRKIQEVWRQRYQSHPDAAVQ"}, "[22]": {"target": "PIM2 (human) (UniProt Q9P1W9)"}, "[23]": {"target": "PIM3 (human) (UniProt Q86V86)"}, "[24]": {"tested_on": "ROCK2 (rat)", "conditions": "accession and sequence are those of the human protein"}, "[25]": {"target": "RPS6KA1 KD1 KD2 (human) (UniProt Q15418)", "sequence (Q15418 whole entry, looked up)": "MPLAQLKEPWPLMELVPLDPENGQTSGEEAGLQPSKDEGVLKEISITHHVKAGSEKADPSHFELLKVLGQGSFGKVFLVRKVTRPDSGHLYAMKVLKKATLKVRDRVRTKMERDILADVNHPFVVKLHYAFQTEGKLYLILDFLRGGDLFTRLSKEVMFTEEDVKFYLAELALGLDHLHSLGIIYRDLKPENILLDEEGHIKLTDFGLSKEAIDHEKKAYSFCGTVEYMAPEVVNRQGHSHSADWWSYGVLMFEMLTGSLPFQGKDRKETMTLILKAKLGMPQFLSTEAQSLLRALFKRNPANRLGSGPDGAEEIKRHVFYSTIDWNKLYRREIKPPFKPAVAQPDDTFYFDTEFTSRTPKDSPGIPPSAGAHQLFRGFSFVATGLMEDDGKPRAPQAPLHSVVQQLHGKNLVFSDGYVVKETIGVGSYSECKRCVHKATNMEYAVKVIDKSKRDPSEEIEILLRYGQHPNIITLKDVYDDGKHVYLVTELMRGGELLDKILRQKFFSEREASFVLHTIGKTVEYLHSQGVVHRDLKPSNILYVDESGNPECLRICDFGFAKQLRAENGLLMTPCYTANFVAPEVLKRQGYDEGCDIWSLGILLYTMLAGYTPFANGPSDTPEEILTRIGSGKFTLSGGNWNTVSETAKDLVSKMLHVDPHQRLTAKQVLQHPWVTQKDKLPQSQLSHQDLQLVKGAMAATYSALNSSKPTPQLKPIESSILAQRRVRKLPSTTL"}, "[26]": {"tested_on": "SGK1 (human), O00141 [S422D]"}, "[27]": {"target": "SYK (human) (UniProt P43405)"}, "[28]": {"target": "TBK1 (human) (UniProt Q9UHD2)"}, "[29]": {"target": "TLK1 (human) (UniProt Q9UKI8)"}}, "note": "Where “and” joins values, the source holds several entries; their conditions need not be identical. Equal values may be shown once.", "data": [{"compound": "CCN1CCN(Cc2ccc(NC(=O)c3ccc(C)c(Oc4ccnc5[nH]ccc45)c3)cc2C(F)(F)F)CC1", "values": [{"measurement": "residual activity", "setting": "[1]; compound 0.1 µM", "value": 120, "unit": "%"}, {"measurement": "residual activity", "setting": "[1]; compound 1.0 µM", "value": 121, "unit": "%"}, {"measurement": "residual activity", "setting": "[1]; compound 10.0 µM", "value": 102, "unit": "%"}, {"measurement": "residual activity", "setting": "[2]; compound 0.1 µM", "value": 100, "unit": "%"}, {"measurement": "residual activity", "setting": "[2]; compound 1.0 µM", "value": 94.8, "unit": "%"}, {"measurement": "residual activity", "setting": "[2]; compound 10.0 µM", "value": 88.8, "unit": "%"}, {"measurement": "residual activity", "setting": "[3]; compound 0.1 µM", "value": 110, "unit": "%"}, {"measurement": "residual activity", "setting": "[3]; compound 1.0 µM", "value": 112, "unit": "%"}, {"measurement": "residual activity", "setting": "[3]; compound 10.0 µM", "value": 99.9, "unit": "%"}, {"measurement": "residual activity", "setting": "[4]; compound 1.0 µM", "value": 80.9, "unit": "%"}, {"measurement": "residual activity", "setting": "[4]; compound 10.0 µM", "value": 84.1, "unit": "%"}, {"measurement": "residual activity", "setting": "[5]; compound 0.1 µM", "value": 102, "unit": "%"}, {"measurement": "residual activity", "setting": "[5]; compound 1.0 µM", "value": 101, "unit": "%"}, {"measurement": "residual activity", "setting": "[5]; compound 10.0 µM", "value": 94.5, "unit": "%"}, {"measurement": "residual activity", "setting": "[6]; compound 0.1 µM", "value": 96.5, "unit": "%"}, {"measurement": "residual activity", "setting": "[6]; compound 1.0 µM", "value": 86.3, "unit": "%"}, {"measurement": "residual activity", "setting": "[6]; compound 10.0 µM", "value": 82, "unit": "%"}, {"measurement": "residual activity", "setting": "[7]; compound 0.1 µM", "value": 98.8, "unit": "%"}, {"measurement": "residual activity", "setting": "[7]; compound 1.0 µM", "value": 64.6, "unit": "%"}, {"measurement": "residual activity", "setting": "[7]; compound 10.0 µM", "value": 21.4, "unit": "%"}, {"measurement": "residual activity", "setting": "[8]; compound 0.1 µM", "value": 96.6, "unit": "%"}, {"measurement": "residual activity", "setting": "[8]; compound 1.0 µM", "value": 29.5, "unit": "%"}, {"measurement": "residual activity", "setting": "[8]; compound 10.0 µM", "value": 7.66, "unit": "%"}, {"measurement": "residual activity", "setting": "[9]; compound 0.1 µM", "value": 79.1, "unit": "%"}, {"measurement": "residual activity", "setting": "[9]; compound 1.0 µM", "value": 23.5, "unit": "%"}, {"measurement": "residual activity", "setting": "[9]; compound 10.0 µM", "value": 8.48, "unit": "%"}, {"measurement": "residual activity", "setting": "[10]; compound 0.1 µM", "value": 24.1, "unit": "%"}, {"measurement": "residual activity", "setting": "[10]; compound 1.0 µM", "value": 12.3, "unit": "%"}, {"measurement": "residual activity", "setting": "[10]; compound 10.0 µM", "value": 9.08, "unit": "%"}, {"measurement": "residual activity", "setting": "[11]; compound 0.1 µM", "value": 95, "unit": "%"}, {"measurement": "residual activity", "setting": "[11]; compound 1.0 µM", "value": 70.8, "unit": "%"}, {"measurement": "residual activity", "setting": "[11]; compound 10.0 µM", "value": 28.7, "unit": "%"}, {"measurement": "residual activity", "setting": "[12]; compound 0.1 µM", "value": 110, "unit": "%"}, {"measurement": "residual activity", "setting": "[12]; compound 1.0 µM", "value": 70.3, "unit": "%"}, {"measurement": "residual activity", "setting": "[12]; compound 10.0 µM", "value": 19.8, "unit": "%"}, {"measurement": "residual activity", "setting": "[13]; compound 0.1 µM", "value": 106, "unit": "%"}, {"measurement": "residual activity", "setting": "[13]; compound 1.0 µM", "value": 96.6, "unit": "%"}, {"measurement": "residual activity", "setting": "[13]; compound 10.0 µM", "value": 80.1, "unit": "%"}, {"measurement": "residual activity", "setting": "[14]; compound 0.1 µM", "value": 106, "unit": "%"}, {"measurement": "residual activity", "setting": "[14]; compound 1.0 µM", "value": 108, "unit": "%"}, {"measurement": "residual activity", "setting": "[14]; compound 10.0 µM", "value": 93.2, "unit": "%"}, {"measurement": "residual activity", "setting": "[15]; compound 0.1 µM", "value": 106, "unit": "%"}, {"measurement": "residual activity", "setting": "[15]; compound 10.0 µM", "value": 44.6, "unit": "%"}, {"measurement": "residual activity", "setting": "[16]; compound 0.1 µM", "value": 93.8, "unit": "%"}, {"measurement": "residual activity", "setting": "[16]; compound 1.0 µM", "value": 61.6, "unit": "%"}, {"measurement": "residual activity", "setting": "[16]; compound 10.0 µM", "value": 14.4, "unit": "%"}, {"measurement": "residual activity", "setting": "[17]; compound 0.1 µM", "value": 110, "unit": "%"}, {"measurement": "residual activity", "setting": "[17]; compound 1.0 µM", "value": 122, "unit": "%"}, {"measurement": "residual activity", "setting": "[17]; compound 10.0 µM", "value": 113, "unit": "%"}, {"measurement": "residual activity", "setting": "[18]; compound 0.1 µM", "value": 115, "unit": "%"}, {"measurement": "residual activity", "setting": "[18]; compound 1.0 µM", "value": 99.5, "unit": "%"}, {"measurement": "residual activity", "setting": "[18]; compound 10.0 µM", "value": 64.1, "unit": "%"}, {"measurement": "residual activity", "setting": "[19]; compound 0.1 µM", "value": 104, "unit": "%"}, {"measurement": "residual activity", "setting": "[19]; compound 1.0 µM", "value": 84.6, "unit": "%"}, {"measurement": "residual activity", "setting": "[19]; compound 10.0 µM", "value": 73.5, "unit": "%"}, {"measurement": "residual activity", "setting": "[20]; compound 0.1 µM", "value": 104, "unit": "%"}, {"measurement": "residual activity", "setting": "[20]; compound 1.0 µM", "value": 90.4, "unit": "%"}, {"measurement": "residual activity", "setting": "[20]; compound 10.0 µM", "value": 94, "unit": "%"}, {"measurement": "residual activity", "setting": "[21]; compound 0.1 µM", "value": "101% and 98%"}, {"measurement": "residual activity", "setting": "[21]; compound 1.0 µM", "value": "100% and 86.1%"}, {"measurement": "residual activity", "setting": "[22]; compound 0.1 µM", "value": 106, "unit": "%"}, {"measurement": "residual activity", "setting": "[22]; compound 1.0 µM", "value": 95, "unit": "%"}, {"measurement": "residual activity", "setting": "[22]; compound 10.0 µM", "value": 102, "unit": "%"}, {"measurement": "residual activity", "setting": "[23]; compound 0.1 µM", "value": 107, "unit": "%"}, {"measurement": "residual activity", "setting": "[23]; compound 1.0 µM", "value": 108, "unit": "%"}, {"measurement": "residual activity", "setting": "[23]; compound 10.0 µM", "value": 98.9, "unit": "%"}, {"measurement": "residual activity", "setting": "[24]; compound 0.1 µM", "value": 91.7, "unit": "%"}, {"measurement": "residual activity", "setting": "[24]; compound 1.0 µM", "value": 71.2, "unit": "%"}, {"measurement": "residual activity", "setting": "[24]; compound 10.0 µM", "value": 25.5, "unit": "%"}, {"measurement": "residual activity", "setting": "[25]; compound 0.1 µM", "value": 107, "unit": "%"}, {"measurement": "residual activity", "setting": "[25]; compound 1.0 µM", "value": 84.3, "unit": "%"}, {"measurement": "residual activity", "setting": "[25]; compound 10.0 µM", "value": 37.9, "unit": "%"}, {"measurement": "residual activity", "setting": "[26]; compound 0.1 µM", "value": 101, "unit": "%"}, {"measurement": "residual activity", "setting": "[26]; compound 1.0 µM", "value": 72.8, "unit": "%"}, {"measurement": "residual activity", "setting": "[26]; compound 10.0 µM", "value": 52.1, "unit": "%"}, {"measurement": "residual activity", "setting": "[27]; compound 0.1 µM", "value": 103, "unit": "%"}, {"measurement": "residual activity", "setting": "[27]; compound 1.0 µM", "value": 47.1, "unit": "%"}, {"measurement": "residual activity", "setting": "[27]; compound 10.0 µM", "value": 11.5, "unit": "%"}, {"measurement": "residual activity", "setting": "[28]; compound 0.1 µM", "value": 113, "unit": "%"}, {"measurement": "residual activity", "setting": "[28]; compound 1.0 µM", "value": 100, "unit": "%"}, {"measurement": "residual activity", "setting": "[28]; compound 10.0 µM", "value": 96, "unit": "%"}, {"measurement": "residual activity", "setting": "[29]; compound 0.1 µM", "value": 107, "unit": "%"}, {"measurement": "residual activity", "setting": "[29]; compound 1.0 µM", "value": 92.2, "unit": "%"}, {"measurement": "residual activity", "setting": "[29]; compound 10.0 µM", "value": 92.1, "unit": "%"}]}]}
